Square brackets hold non-standard residues; d marks the D form. Ends that are not written are not given here.
Tests used:
trypsin biosynthesis [1] = assay: Injecting TMOF-R analogues into second instar Heliothis virescens: trypsin biosynthesis (BApNA); type: in vivo; details: second instar larvae, 24 hours after injection
Protocol: TMOF analogues (5 to 8 amino acids in length, and polymers of these analogues) in which Arg was added at the C-terminus were evaluated to determine their effect on larval growth and development. A series of analogues were synthesized and tested by feeding them to mosquito larvae at concentrations of (0.5 to 5.0 mg/ml; Table 4). Concentrations of 2.0 to 0.065 mg/ml were used to feed mosquito larvae and calculate the Lethal Dose at 50% mortality (LD50; Table 4) of the TMOF analogues. […] In both cases larval death and trypsin biosynthesis inhibition was noted (Table 4 and 5). […] The advantage of using short analogues connected by Arg is that they can be digested in the gut into short TMOF analogues that can penetrate the midgut much faster than longer analogues.
Individual second instar larvae of H. virescens were injected with TMOF-R analogues (10 to 0.25 μg per larva) and maintained in separate plastic cups on artificial diet. Twenty-four hours after the injections 3 groups of larvae (3 per group) were assayed for trypsin biosynthesis using BApNA (trypsin specific substrate; Table 5).

mosquito larvae = assay: Feeding TMOF and its analogue peptides to mosquito larvae (LD50); type: in vivo, Aedes aegypti; details: 100 μl microtiter plates, 7 days, diet of autoclaved yeast (1 mg/ml)
Description: TMOF can traverse the gut epithelium, enter the hemolymph and bind a gut receptor (Borovsky, D. and F. Mahmood (1995) “Feeding the mosquito Aedes aegypti with TMOF and its analogs; effect on trypsin biosynthesis and egg development,” Regulatory Peptides 57:273-281.; Borovsky, D., C. A. Powell, J. K. Nayar, J. E. Blalock, and T. K. Hayes (1994) “Characterization and localization of mosquito-gut receptors for trypsin modulating oostatic factor using complementary peptide immunochemistry” FASEB J. 8:350-355.). […] This characteristic permits testing of TMOF and its analogs by feeding them to mosquito and other pest larvae. To determine whether truncated TMOF peptides have an effect on larval growth and development, a series of peptides were synthesized and tested by feeding them to mosquito larvae at concentrations of 0.5 to 5.0 mg/ml (Table 1). Individual, newly hatched Aedes aegypti larvae were maintained in separate microtiter wells on a diet of autoclaved yeast (1 mg/ml). The diet was supplemented with TMOF peptides (Table 1). An identical number of larvae which were maintained on yeast served as a control. […] All control groups survived and larval growth and development was normal. Since larvae swallow only a small portion of the yeast particles that adsorbed the peptides, it is assumed that approximately 1 to 20 ng are taken orally at the high concentrations.

[2] = test system: first instar H. virescens larvae; assay: Feeding of first instar H. virescens on TMOF analogs for 14 days; type: in vivo, Heliothis virescens; details: first instar larvae fed individually 1.6 µg of TMOF analogs for 14 days
[3] = test system: fourth instar Heliothis virescens; assay: Feeding TMOF analogs to fourth instar H. virescens: larval weight; type: in vivo; details: for larval weight and trypsin biosynthesis (in words): fourth instar larvae fed TMOF analog peptides for 5 days; for Weight Gain / Weight mg ± S.E.M. End: fourth instar larvae fed synthetic food and 0.8 mg of TMOF analogs for 5 days
Protocol: In both cases a reduction in weight gain and trypsin inhibition was noted (Tables 3 and 4).
(§1) Larvae were fed for 5 to 14 days and larval weight and trypsin activity were measured at the end of the experimental periods. […] When first instar larvae were fed for 14 days on analogs 15 and 16 (Table 4), an 18% and 26% reduction in weight was observed.

trypsin biosynthesis [4] = assay: Feeding TMOF analogs to fourth instar H. virescens: gut trypsin biosynthesis ([3H]DFP); type: in vivo, Heliothis virescens; details: guts of fourth instar larvae after 5 days feeding on 0.8 mg of TMOF analogs
Protocol: as §1

(DPAR)4
Inhibition (% ± S.E.M.) of trypsin biosynthesis (trypsin biosynthesis [1]; 0.5 μg/injection): 3 ± 0.3%
Inhibition (% ± S.E.M.) of trypsin biosynthesis (trypsin biosynthesis [1]; 1 μg/injection): 35 ± 7%
Inhibition (% ± S.E.M.) of trypsin biosynthesis (trypsin biosynthesis [1]; 10 μg/injection): 58 ± 36%

FDPAP (TMOF peptide) [27]
LD50 mM ± S.E.M. (mosquito larvae): 3 0.37 ± 0.15 mM

FAP (TMOF peptide) [25]
LD50 mM ± S.E.M. (mosquito larvae): 3 3.8 ± 0.23 mM

YSPAP (TMOF peptide) [54]
Number of Dead Larvae [2]: 0
Weight (mg) ± S.E.M. [2]: 168 ± 11 mg
Weight Reduction (%) ± S.E.M. [2]: 0%
LD50 mM ± S.E.M. (mosquito larvae): 3 1.4 ± 0.03 mM
larval weight and trypsin biosynthesis (in words) [3]: Reductions in larval weight and trypsin biosynthesis were observed
Weight Gain [3]: 151 mg
Weight mg ± S.E.M. End [3]: 188 ± 10.6 mg
Inhibition (% ± S.E.M.) of trypsin biosynthesis (trypsin biosynthesis [4]): 19 ± 2%
Trypsin μg ± S.E.M. (trypsin biosynthesis [4]): 2.0 ± 0.2 µg

YAPAP (TMOF peptide) [62]
LD50 mM ± S.E.M. (mosquito larvae): 3 0.54 ± 0.13 mM

YDG (TMOF peptide) [40]
LD50 mM ± S.E.M. (mosquito larvae): 3 0.95 ± 0.11 mM

YDPGP (TMOF peptide) [48]
Number of Dead Larvae [2]: 2
Weight (mg) ± S.E.M. [2]: 153 ± 10 mg
Weight Reduction (%) ± S.E.M. [2]: 6 ± 0.4%
Weight Reduction (%) ± S.E.M. ([2]; listed as 16): 26%
LD50 mM ± S.E.M. (mosquito larvae): 5 1.1 ± 0.18 mM
larval weight and trypsin biosynthesis (in words) [3]: Reductions in larval weight and trypsin biosynthesis were observed
Weight Gain [3]: 163.1 mg
Weight mg ± S.E.M. End [3]: 199.8 ± 11 mg
Inhibition (% ± S.E.M.) of trypsin biosynthesis (trypsin biosynthesis [4]): 17 ± 1%
Trypsin μg ± S.E.M. (trypsin biosynthesis [4]): 2.1 ± 0.1 µg

YDPAA (TMOF peptide) [55]
LD50 mM ± S.E.M. (mosquito larvae): 3 1.6 ± 0.13 mM

DPAR (TMOF-R analogue peptide) [60]
Inhibition (% ± S.E.M.) of trypsin biosynthesis (trypsin biosynthesis [1]; 1 μg/injection): 17 ± 2%
Inhibition (% ± S.E.M.) of trypsin biosynthesis (trypsin biosynthesis [1]; 10 μg/injection): 100%

YDPAP (TMOF peptide) [11]
LD50 mM ± S.E.M. (mosquito larvae): 3 1.64 ± 0.03 mM

ADPAP (TMOF peptide) [18]
LD50 mM ± S.E.M. (mosquito larvae): 4 2.0 ± 0.36 mM

DAA (TMOF peptide) [20]
LD50 mM ± S.E.M. (mosquito larvae): 3 0.91 ± 0.06 mM

MPDYP5 (MPDYPPPPP; TMOF peptide) [29]
LD50 mM ± S.E.M. (mosquito larvae): 3 > 3.0 mM

YDPAL (TMOF peptide) [45]
LD50 mM ± S.E.M. (mosquito larvae): 3 0.52 ± 0.03 mM

YAP (TMOF peptide) [34]
LD50 mM ± S.E.M. (mosquito larvae): 3 2.3 ± 0.5 mM

PAA (TMOF peptide) [30]
LD50 mM ± S.E.M. (mosquito larvae): 3 2.4 ± 0.34 mM

YDF (TMOF peptide) [38]
LD50 mM ± S.E.M. (mosquito larvae): 3 0.97 ± 0.11 mM

YDAAP (TMOF peptide) [37]
Number of Dead Larvae [2]: 0
Weight (mg) ± S.E.M. [2]: 133 ± 7 mg
Weight Reduction (%) ± S.E.M. [2]: 18 ± 1%
Weight Reduction (%) ± S.E.M. ([2]; listed as 15): 18%
LD50 mM ± S.E.M. (mosquito larvae): 3 1.0 ± 0.18 mM
larval weight and trypsin biosynthesis (in words) [3]: Reductions in larval weight and trypsin biosynthesis were observed
Weight Gain [3]: 179 mg
Weight mg ± S.E.M. End [3]: 217 ± 9.5 mg
Inhibition (% ± S.E.M.) of trypsin biosynthesis (trypsin biosynthesis [4]): 17 ± 1.6%
Trypsin μg ± S.E.M. (trypsin biosynthesis [4]): 2.1 ± 0.2 µg

DYP (TMOF peptide) [24]
Number of Dead Larvae [2]: 1
Weight (mg) ± S.E.M. [2]: 149 ± 9 mg
Weight Reduction (%) ± S.E.M. [2]: 9 ± 0.5%
LD50 mM ± S.E.M. (mosquito larvae): 4 1.27 ± 0.17 mM
Weight Gain [3]: 180.5 mg
Weight mg ± S.E.M. End [3]: 216.7 ± 13 mg
Inhibition (% ± S.E.M.) of trypsin biosynthesis (trypsin biosynthesis [4]): 14 ± 1.8%
Trypsin μg ± S.E.M. (trypsin biosynthesis [4]): 2.2 ± 0.3 µg

FDP (TMOF peptide) [26]
LD50 mM ± S.E.M. (mosquito larvae): 3 1.98 ± 0.6 mM

YDPLP (TMOF peptide) [49]
LD50 mM ± S.E.M. (mosquito larvae): 3 1.5 ± 0.04 mM

YEPAP (TMOF peptide) [50]
LD50 mM ± S.E.M. (mosquito larvae): 3 0.35 ± 0.02 mM

AAP (TMOF peptide) [16]
LD50 mM ± S.E.M. (mosquito larvae): 3 1.08 ± 0.07 mM

FSP (TMOF peptide) [28]
LD50 mM ± S.E.M. (mosquito larvae): 3 2.3 ± 0.13 mM

YSF (TMOF peptide) [53]
LD50 mM ± S.E.M. (mosquito larvae): 3 1.08 ± 0.12 mM

YFPAP (TMOF peptide) [51]
LD50 mM ± S.E.M. (mosquito larvae): 3 0.64 ± 0.03 mM

YDLAP (TMOF peptide) [41]
LD50 mM ± S.E.M. (mosquito larvae): 3 0.6 ± 0.05 mM

YDPAFR (TMOF-R analogue peptide) [58]
Inhibition (% ± S.E.M.) of trypsin biosynthesis (trypsin biosynthesis [1]; 10 μg/injection): 0 ± 0%

YDPFP (TMOF peptide) [47]
LD50 mM ± S.E.M. (mosquito larvae): 4 1.7 ± 0.4 mM

YDP (TMOF peptide) [42]
Number of Dead Larvae [2]: 0
Weight (mg) ± S.E.M. [2]: 157 ± 10 mg
Weight Reduction (%) ± S.E.M. [2]: 4 ± 0.2%
LD50 mM ± S.E.M. (mosquito larvae): 5 2.3 ± 0.4 mM
Weight Gain [3]: 186.3 mg
Weight mg ± S.E.M. End [3]: 223.4 ± 16 mg
Inhibition (% ± S.E.M.) of trypsin biosynthesis (trypsin biosynthesis [4]): 19 ± 3.2%
Trypsin μg ± S.E.M. (trypsin biosynthesis [4]): 2.1 ± 0.3 µg

ADP (TMOF peptide) [17]
LD50 mM ± S.E.M. (mosquito larvae): 3 > 6.6 mM

YNPAP (TMOF peptide) [52]
LD50 mM ± S.E.M. (mosquito larvae): 3 0.55 ± 0.03 mM

PAP (TMOF peptide) [31]
LD50 mM ± S.E.M. (mosquito larvae): 3 3.17 ± 0.14 mM

YDPAPR (TMOF-R analogue peptide) [57]
Inhibition (% ± S.E.M.) of trypsin biosynthesis (trypsin biosynthesis [1]; 0.25 μg/injection): 11 ± 1%
Inhibition (% ± S.E.M.) of trypsin biosynthesis (trypsin biosynthesis [1]; 0.5 μg/injection): 14 ± 1%
Inhibition (% ± S.E.M.) of trypsin biosynthesis (trypsin biosynthesis [1]; 1 μg/injection): 31.5 ± 2%
Inhibition (% ± S.E.M.) of trypsin biosynthesis (trypsin biosynthesis [1]; 10 μg/injection): 53 ± 25%

DPA
LD50 mM ± S.E.M. (mosquito larvae): 3 0.4 ± 0.03 mM

YDA (TMOF peptide) [36]
LD50 mM ± S.E.M. (mosquito larvae): 3 1.6 ± 0.13 mM

APA (TMOF peptide) [19]
LD50 mM ± S.E.M. (mosquito larvae): 3 1.0 ± 0.07 mM

YDPAF (TMOF peptide) [44]
LD50 mM ± S.E.M. (mosquito larvae): 3 0.33 ± 0.2 mM

ADAAP (TMOF peptide) [56]
Number of Dead Larvae [2]: 0
Weight (mg) ± S.E.M. [2]: 141 ± 9 mg
Weight Reduction (%) ± S.E.M. [2]: 7 ± 0.4%
Weight Gain [3]: 174.1 mg
Weight mg ± S.E.M. End [3]: 209.7 ± 12 mg
Inhibition (% ± S.E.M.) of trypsin biosynthesis (trypsin biosynthesis [4]): 5 ± 0.6%
Trypsin μg ± S.E.M. (trypsin biosynthesis [4]): 2.4 ± 0.3 µg

Y(D)DP (Tyr-[dD]-Pro) [32]
LD50 mM ± S.E.M. (mosquito larvae): 3 0.28 ± 0.01 mM

(D)YDPAP ([dY]DPAP) [46]
LD50 mM ± S.E.M. (mosquito larvae): 3 0.56 ± 0.03 mM

(D)YDP ([dY]-Asp-Pro) [43]
LD50 mM ± S.E.M. (mosquito larvae): 3 0.51 ± 0.05 mM

YDPAR (TMOF-R analogue peptide) [59]
Inhibition (% ± S.E.M.) of trypsin biosynthesis (trypsin biosynthesis [1]; 0.5 μg/injection): 1 ± 0.07%
Inhibition (% ± S.E.M.) of trypsin biosynthesis (trypsin biosynthesis [1]; 1 μg/injection): 39 ± 2%
Inhibition (% ± S.E.M.) of trypsin biosynthesis (trypsin biosynthesis [1]; 10 μg/injection): 33.5 ± 9%

Source: patent US6635265B1, “Materials and methods useful for the control of insect larvae” (University of Florida Research Foundation, Inc., priority 1999, dated 2003)
